Data published in US20230173071A1, “TREATMENT OF MYOPIA AND OTHER OCULAR CONDITIONS USING SINGLET OXYGEN GENERATED FROM DYES ACTIVATED BY NEAR-INFRARED LIGHT” (California Institute of Technology, priority 2018, published 2023).

Key:
[1] = Dye solubility observations; assay type: physicochemical
Procedure: ICG is a NIR-absorbing heptamethine dye that has the potential of generating singlet oxygen upon irradiation and has a λmax ranging from 780-810 nm depending on the context. […] BAC along with other cationic surfactants (alkyl ammonium salts, polyoxyethylene alkyl amines, amide linked alkyl amines, alkyl imidazolines, etc.) aid in the solubility of the dye in aqueous media. […] The standard formulation used in these studies consisted of 0.05 to 5.0 mg/mL ICG and 0.01% to 0.001% BAC in solution. D2O was selected as the solvent to increase the lifetime of singlet oxygen and therefore the crosslinking capability of the species. […] Fluorinated solvents (perfluorohexane, perfluorotripentylamine, etc.) are also of interest due to their ability to dissolve more oxygen and their robust inertness.

[2] = test system: sclera of enucleated young rabbit eyes; test: Eye expansion test - whole eye treatment, scleral area analysis; details: for reduction in expansion, treated vs untreated: ICG with sodium iodide (NaI) additive in D2O; for reduction in expansion, fully treated eyes vs NIR light only treated eyes: ICG/NaI/D2O with NIR light
Procedure: Enucleated young rabbit eyes were provided from collaborators at University of California, San Francisco (UCSF). These were shipped overnight and used within 1-4 days. Upon arrival, they were stored in Dulbecco's buffer in a 4° C. refrigerator until use. They were trimmed of fat and muscle to provide a smooth surface for easy identification of changes to the size. All irradiations used an 810 nm LED (Thor) set to a power of ˜200 mW.
Untreated eyes received no further modification and were stored in Dulbecco's buffer in the refrigerator until use. Eyes to be treated had their epithelial layer on the cornea removed. An ethanol-soaked Kim wipe was applied to the cornea for two minutes and then a scalpel blade was used to scrape the layer off. Removal was confirmed using a fluorescein strip and long UV light. […] The eye was placed cornea up on a damp (D2O) gauze pad and then placed on a 10 mL beaker. The LED was placed above the eye to irradiate down for 10 minutes with 5-15 drops of either the soaking solution or D2O being applied every 2 minutes to keep the sample hydrated. Once completed, the irradiation process was repeated for the reverse side of the eye (by the retina), then the eye on its side (half cornea & sclera), and finally on the reverse side of the sideways eye. This was a total of four 10 minute irradiations aimed to treat the whole eye.
The eye expansion setup followed the protocol outlined below. The eyes were placed on a stand and 30 gauge needle was inserted from underneath. The chamber was filled with Dulbecco's buffer and two different antibiotics mixtures—an ophthalmic solution of Trimethoprim Sulfate and Polymyxin B Sulfate and an ophthalmic ointment of Neomycin and Polmyxin B Sulfates and Bacitracin Zinc. A low pressure (˜22 mm Hg) was applied for one hour to equilibrate the eyes prior to applying a higher pressure (˜85 mm Hg) for the experiment. This is done by raising an IV bag to a predetermined height above the eye chamber. The higher pressure was applied from 12-36 hours (or until rupture) depending on the experiment. Two photos were taken every 15 minutes during both the low and high-pressure applications. […]
Image J was used to calculate the scleral area for comparison. […] Measured scleral areas where then converted to percent change from the initial time point (when the higher pressure was first applied). These values were averaged and standard errors calculated for comparison.
To evaluate the ability of ICG to crosslink the sclera, a similar set of eye expansion tests was performed. […] To quantify this observation, the area of the sclera was calculated using Image J for the initial and 12-hour time points (FIGS. 7(A-B)). Expansion from the initial time point was calculated and compared as a percent.

[3] = Singlet oxygen generation by DPBF decay (UV-Vis), 810 nm LED; assay type: physicochemical
Source text: To evaluate the efficiency of singlet oxygen generation by ICG and an analog (IR-820) in vitro, the singlet oxygen generation was monitored. 1,3-diphenylisobenzofuran (DPBF), a compound that decays in the presence of singlet oxygen, and singlet oxygen sensor green (SOSG), a dye that increases fluorescence in the presence of singlet oxygen, were used as markers to indicate singlet oxygen generation by ICG and IR-820. […] For SOSG analysis, the fluorescence turn-on in H2O and D2O was compared to that observed when riboflavin—an FDA approved dye used in conjunction with UV light to treat keratoconus (corneal expansion)—was usedIn all cases, an increase in fluorescence emission at 525 nm was observed (using a 488nm excitation).

CC1(C)C(/C=C/C=C/C=C/C=C2\N(CCCCS(=O)(=O)O)c3ccc4ccccc4c3C2(C)C)=[N+](CCCCS(=O)(=O)[O-])c2ccc3ccccc3c21 [ICG, indocyanine green]
solubility in aqueous media ([1]; BAC compared with sodium iodide): greater increases in solubility
solubility in aqueous media ([1]; with BAC and other cationic surfactant additives): enhanced solubility
reduction in expansion, treated vs untreated ([2]; 12 hour time point): ~62%
reduction in expansion, treated vs untreated ([2]; 24 hour time point): 70%
reduction in expansion, fully treated eyes vs NIR light only treated eyes ([2]; 12 hour time point): ~69%
reduction in expansion, fully treated eyes vs NIR light only treated eyes ([2]; 24 hour time point): ~72%
ICG and DPBF signal (UV-Vis) upon irradiation ([3]; 810 nm, 375 mW LED, in water): decrease
singlet oxygen generation (DPBF analysis) ([3]; in H2O or D2O): singlet oxygen generation was observed
